# Test results taken from PubChem BioAssay AID256 (DTP/NCI, 2004).
# Values joined by “and” are separate entries in the source; they are usually repeats but may differ in a detail not shown here. Equal values may be shown once. Inconclusive results and toxic doses are left out.
# Test system: CD2F1 mice, L1210 leukemia ip, survival T/C
# Experiment: NCI In Vivo Anticancer Drug Screen. Data for tumor model L1210 Leukemia (intraperitoneal) in CD2F1 (CDF1) mice
# Details: higher = longer survival
# Method in brief: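 Mice carrying a transplanted tumor received test compound or vehicle alone. The value is the measurement in the treated group divided by that in the vehicle-treated control group.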
# [1] = endpoint: mean survival time, dose: 100.0 mg/kg/injection, schedule: Q01DX001 (ip), vehicle: saline with Tween-80
# [2] = endpoint: mean survival time, dose: 100.0 mg/kg/injection, schedule: Q04DX003 (ip), vehicle: saline with Tween-80
# [3] = endpoint: mean survival time, dose: 200.0 mg/kg/injection, schedule: Q01DX001 (ip), vehicle: saline with Tween-80
# [4] = endpoint: mean survival time, dose: 200.0 mg/kg/injection, schedule: Q04DX003 (ip), vehicle: saline with Tween-80
# [5] = endpoint: mean survival time, dose: 400.0 mg/kg/injection, schedule: Q04DX003 (ip), vehicle: saline with Tween-80
# [6] = endpoint: mean survival time, dose: 25.0 mg/kg/injection, schedule: Q01DX009 (ip), vehicle: saline with Tween-80
# [7] = endpoint: mean survival time, dose: 50.0 mg/kg/injection, schedule: Q01DX009 (ip), vehicle: saline with Tween-80
# [8] = endpoint: mean survival time, dose: 100.0 mg/kg/injection, schedule: Q01DX009 (ip), vehicle: saline with Tween-80
# [9] = endpoint: mean survival time, dose: 50.0 mg/kg/injection, schedule: Q01DX001 (ip), vehicle: saline with Tween-80
# [10] = endpoint: mean survival time, dose: 200.0 mg/kg/injection, schedule: Q01DX009 (ip), vehicle: saline with Tween-80
# [11] = endpoint: mean survival time, dose: 400.0 mg/kg/injection, schedule: Q01DX009 (ip), vehicle: saline with Tween-80
smiles,measurement,setting,value
CCCCn1cnc2c(=S)nc[nH]c21,T/C,"endpoint: mean survival time, dose: 32.0 mg/kg/injection, schedule: Q01DX009 (ip), vehicle: saline",118 % of control and 105 % of control
same,T/C,"endpoint: mean survival time, dose: 64.0 mg/kg/injection, schedule: Q01DX009 (ip), vehicle: saline",112 % of control and 115 % of control
same,T/C,"endpoint: mean survival time, dose: 100.0 mg/kg/injection, schedule: Q01DX007 (ip), vehicle: saline",113 % of control
same,T/C,"endpoint: mean survival time, dose: 100.0 mg/kg/injection, schedule: Q03DX003 (ip), vehicle: saline",102 % of control
same,T/C,"endpoint: mean survival time, dose: 100.0 mg/kg/injection, schedule: Q04DX003 (ip), vehicle: saline",97 % of control
same,T/C,"endpoint: mean survival time, dose: 128.0 mg/kg/injection, schedule: Q01DX009 (ip), vehicle: saline",118 % of control
same,T/C,"endpoint: mean survival time, dose: 200.0 mg/kg/injection, schedule: Q01DX007 (ip), vehicle: saline",162 % of control
same,T/C,"endpoint: mean survival time, dose: 200.0 mg/kg/injection, schedule: Q01DX009 (ip), vehicle: saline",165 % of control
same,T/C,"endpoint: mean survival time, dose: 200.0 mg/kg/injection, schedule: Q03DX003 (ip), vehicle: saline",122 % of control
same,T/C,"endpoint: mean survival time, dose: 200.0 mg/kg/injection, schedule: Q04DX003 (ip), vehicle: saline",118 % of control
same,T/C,"endpoint: mean survival time, dose: 256.0 mg/kg/injection, schedule: Q01DX009 (ip), vehicle: saline",153 % of control and 169 % of control
same,T/C,"endpoint: mean survival time, dose: 400.0 mg/kg/injection, schedule: Q01DX007 (ip), vehicle: saline",115 % of control
same,T/C,"endpoint: mean survival time, dose: 400.0 mg/kg/injection, schedule: Q01DX009 (ip), vehicle: saline",102 % of control
same,T/C,"endpoint: mean survival time, dose: 400.0 mg/kg/injection, schedule: Q03DX003 (ip), vehicle: saline",168 % of control
same,T/C,"endpoint: mean survival time, dose: 400.0 mg/kg/injection, schedule: Q04DX003 (ip), vehicle: saline",163 % of control
same,T/C,"endpoint: median survival time, dose: 25.0 mg/kg/injection, schedule: Q01DX009 (ip), vehicle: saline with Tween-80",124 % of control and 107 % of control
same,T/C,"endpoint: median survival time, dose: 50.0 mg/kg/injection, schedule: Q01DX009 (ip), vehicle: saline with Tween-80",122 % of control
same,T/C,"endpoint: median survival time, dose: 100.0 mg/kg/injection, schedule: Q01DX009 (ip), vehicle: saline with Tween-80",164 % of control
same,T/C,"endpoint: median survival time, dose: 200.0 mg/kg/injection, schedule: Q01DX009 (ip), vehicle: saline with Tween-80",154 % of control and 164 % of control
same,T/C,"endpoint: median survival time, dose: 400.0 mg/kg/injection, schedule: Q01DX009 (ip), vehicle: saline with Tween-80",122 % of control
CC(C)NCCCC(=O)O,T/C,"endpoint: mean survival time, dose: 12.5 mg/kg/injection, schedule: Q01DX009 (ip), vehicle: water",96 % of control
same,T/C,"endpoint: mean survival time, dose: 25.0 mg/kg/injection, schedule: Q01DX009 (ip), vehicle: water",98 % of control
same,T/C,"endpoint: mean survival time, dose: 50.0 mg/kg/injection, schedule: Q01DX009 (ip), vehicle: water",90 % of control
same,T/C,"endpoint: mean survival time, dose: 100.0 mg/kg/injection, schedule: Q01DX009 (ip), vehicle: water",98 % of control
same,T/C,"endpoint: mean survival time, dose: 200.0 mg/kg/injection, schedule: Q01DX009 (ip), vehicle: water",95 % of control
Cc1ccc(-c2nn[nH]n2)cc1[N+](=O)[O-],T/C,[1],109 % of control
same,T/C,[2],95 % of control
same,T/C,[3],86 % of control
same,T/C,[4],97 % of control
same,T/C,"endpoint: mean survival time, dose: 400.0 mg/kg/injection, schedule: Q01DX001 (ip), vehicle: saline with Tween-80",89 % of control
same,T/C,[5],95 % of control
O=C1c2cscc2C(=O)c2c(Cl)sc(Cl)c21,T/C,"endpoint: mean survival time, dose: 12.5 mg/kg/injection, schedule: Q04DX003 (ip), vehicle: saline with Tween-80",96 % of control
same,T/C,[6],103 % of control
same,T/C,"endpoint: mean survival time, dose: 25.0 mg/kg/injection, schedule: Q04DX003 (ip), vehicle: saline with Tween-80",98 % of control
same,T/C,[7],97 % of control
same,T/C,"endpoint: mean survival time, dose: 50.0 mg/kg/injection, schedule: Q04DX003 (ip), vehicle: saline with Tween-80",90 % of control
same,T/C,[8],91 % of control
same,T/C,[2],100 % of control
O=P1(O)c2ccccc2Nc2ccccc21,T/C,"endpoint: mean survival time, dose: 50.0 mg/kg/injection, schedule: Q01DX009 (ip), vehicle: Klucel (hydroxypropylcellulose) (HPC)",104 % of control
same,T/C,"endpoint: mean survival time, dose: 100.0 mg/kg/injection, schedule: Q01DX009 (ip), vehicle: Klucel (hydroxypropylcellulose) (HPC)",93 % of control
same,T/C,"endpoint: mean survival time, dose: 200.0 mg/kg/injection, schedule: Q01DX009 (ip), vehicle: Klucel (hydroxypropylcellulose) (HPC)",108 % of control
Nc1nc(N)c(N)c(/C=C/c2ccccc2)n1,T/C,"endpoint: mean survival time, dose: 0.32 mg/kg/injection, schedule: Q01DX009 (ip), vehicle: other",101 % of control
same,T/C,"endpoint: mean survival time, dose: 0.63 mg/kg/injection, schedule: Q01DX009 (ip), vehicle: other",106 % of control
same,T/C,"endpoint: mean survival time, dose: 0.63 mg/kg/injection, schedule: Q01DX009 (ip), vehicle: water",97 % of control
same,T/C,"endpoint: mean survival time, dose: 1.25 mg/kg/injection, schedule: Q01DX009 (ip), vehicle: other",98 % of control
same,T/C,"endpoint: mean survival time, dose: 1.25 mg/kg/injection, schedule: Q01DX009 (ip), vehicle: water",103 % of control
same,T/C,"endpoint: mean survival time, dose: 2.5 mg/kg/injection, schedule: Q01DX009 (ip), vehicle: other",101 % of control
same,T/C,"endpoint: mean survival time, dose: 2.5 mg/kg/injection, schedule: Q01DX009 (ip), vehicle: water",97 % of control
same,T/C,"endpoint: mean survival time, dose: 5.0 mg/kg/injection, schedule: Q01DX009 (ip), vehicle: other",101 % of control
same,T/C,"endpoint: mean survival time, dose: 5.0 mg/kg/injection, schedule: Q01DX009 (ip), vehicle: water",97 % of control
CN1C2CCC1CNC2,T/C,[2],103 % of control
same,T/C,[4],101 % of control
same,T/C,[5],103 % of control
C[N+]1(CCC(c2ccccc2)c2ccccc2)CCCCC1,T/C,"endpoint: mean survival time, dose: 12.5 mg/kg/injection, schedule: Q04DX003 (ip), vehicle: saline",96 % of control
same,T/C,"endpoint: mean survival time, dose: 25.0 mg/kg/injection, schedule: Q04DX003 (ip), vehicle: saline",104 % of control
same,T/C,"endpoint: mean survival time, dose: 50.0 mg/kg/injection, schedule: Q04DX003 (ip), vehicle: saline",102 % of control
CCOC(=O)/C(C#N)=C(\C)c1cccc(C)c1,T/C,[6],102 % of control
same,T/C,[7],98 % of control
same,T/C,[8],103 % of control
same,T/C,[2],105 % of control
Cc1ncc(C=O)c(C)c1O,T/C,"endpoint: mean survival time, dose: 75.0 mg/kg/injection, schedule: Q01DX001 (ip), vehicle: other",101 % of control
O=[N+]([O-])c1ccc(Sc2ncnc3nc[nH]c23)c([N+](=O)[O-])c1,T/C,"endpoint: mean survival time, dose: 16.6 mg/kg/injection, schedule: Q01DX005 (ip), vehicle: other",154 % of control
same,T/C,"endpoint: mean survival time, dose: 25.0 mg/kg/injection, schedule: Q01DX005 (ip), vehicle: other",167 % of control
same,T/C,"endpoint: mean survival time, dose: 37.5 mg/kg/injection, schedule: Q01DX005 (ip), vehicle: other",162 % of control
same,T/C,"endpoint: mean survival time, dose: 56.3 mg/kg/injection, schedule: Q01DX005 (ip), vehicle: other",167 % of control
[Co].[N-]=C=S.[N-]=C=S.[N-]=C=S.[NH2-].[NH2-].[NH2-],T/C,[9],98 % of control and 101 % of control
CC(C)(O)c1cccc(F)c1,T/C,[7],102 % of control
same,T/C,[8],98 % of control
same,T/C,[10],102 % of control
same,T/C,[11],102 % of control
CC1(C)Nc2cc3c(cc2-n2cccc21)oc1ccccc13,T/C,"endpoint: median survival time, dose: 50.0 mg/kg/injection, schedule: Q01DX005 (ip), vehicle: DMSO",98 % of control
same,T/C,"endpoint: median survival time, dose: 100.0 mg/kg/injection, schedule: Q01DX005 (ip), vehicle: DMSO",103 % of control
same,T/C,"endpoint: median survival time, dose: 200.0 mg/kg/injection, schedule: Q01DX005 (ip), vehicle: DMSO",100 % of control
same,T/C,"endpoint: median survival time, dose: 400.0 mg/kg/injection, schedule: Q01DX005 (ip), vehicle: DMSO",101 % of control
same,T/C,"endpoint: median survival time, dose: 800.0 mg/kg/injection, schedule: Q01DX005 (ip), vehicle: DMSO",103 % of control
CC1CCc2c(ccc3ccccc23)C1=O (configuration not stated),T/C,[8],97 % of control
same,T/C,[2],97 % of control
same,T/C,[10],95 % of control
same,T/C,[4],97 % of control
same,T/C,[11],97 % of control
same,T/C,[5],94 % of control
CC(CCOc1ccc2ccc(=O)oc2c1)C1=CC(=O)C(C)(C)O1 (configuration not stated),T/C,[9],113 % of control
same,T/C,[1],95 % of control
same,T/C,[3],98 % of control
CC1SCCCS1,T/C,"endpoint: mean survival time, dose: 12.5 mg/kg/injection, schedule: Q04DX003 (ip), vehicle: other",106 % of control
same,T/C,"endpoint: mean survival time, dose: 25.0 mg/kg/injection, schedule: Q04DX003 (ip), vehicle: other",104 % of control
same,T/C,"endpoint: mean survival time, dose: 50.0 mg/kg/injection, schedule: Q04DX003 (ip), vehicle: other",102 % of control
same,T/C,"endpoint: mean survival time, dose: 100.0 mg/kg/injection, schedule: Q04DX003 (ip), vehicle: other",102 % of control
same,T/C,"endpoint: mean survival time, dose: 200.0 mg/kg/injection, schedule: Q04DX003 (ip), vehicle: other",97 % of control
CCOC(=O)C(C#N)C(=N)C#N (configuration not stated),T/C,"endpoint: mean survival time, dose: 100.0 mg/kg/injection, schedule: Q04DX002 (ip), vehicle: saline with Tween-80",93 % of control
same,T/C,"endpoint: mean survival time, dose: 200.0 mg/kg/injection, schedule: Q04DX002 (ip), vehicle: saline with Tween-80",89 % of control
same,T/C,"endpoint: mean survival time, dose: 400.0 mg/kg/injection, schedule: Q04DX002 (ip), vehicle: saline with Tween-80",110 % of control
